From patent US10766869B2, “Triazoles for the treatment of demyelinating dieases” (Vertex Pharmaceuticals Incorporated, priority 2015, dated 2020)

System: primary rat mixed cortical cells
Assay: In vitro myelination assay (MBP positive myelin strands, fold myelin pixels above background)
Format: cell-based
Details: Rattus norvegicus, read-out: Fold myelin pixels above background relative to baseline of no added compound; for fold induction at 1 µM: 1.0 μM compound; for fold induction at 10 µM: 10.0 μM compound
Outline: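 Compounds at 1.0 and 10.0 μM were incubated 14 days with dissociated P1 rat cortical cells, which were then fixed and immunostained for MBP. Myelination was scored as fold MBP myelin pixels per well over the no-compound baseline.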

| Compound | fold induction at 1 µM | fold induction at 10 µM |
| --- | --- | --- |
| Cc1cc(Nc2ncn(-c3cc(F)cc(F)c3)n2)cc(NC2CCN(CC3CCCO3)CC2)c1 (stereo not drawn) [Compound 891, N3-[1-(3,5-difluorophenyl)-1,2,4-triazol-3-yl]-5-methyl-N1-[1-(tetrahydrofuran-2-ylmethyl)-4-piperidyl]benzene-1,3-diamine] | 1 to 10 | ≤ 1 |
| Cc1cc(Nc2ncn(-c3cc(F)cc(F)c3)n2)cc(N2CCN(C3CCCN(C)C3)CC2)c1 (stereo not drawn) [Compound 892, 1-(3,5-difluorophenyl)-N-[3-methyl-5-[4-(1-methyl-3-piperidyl)piperazin-1-yl]phenyl]-1,2,4-triazol-3-amine] | 1 to 10 | ≤ 1 |
| CCN1CCOC(CNc2cc(C)cc(Nc3ncn(-c4cc(F)cc(F)c4)n3)c2)C1 (stereo not drawn) [Compound 893, N3-[1-(3,5-difluorophenyl)-1,2,4-triazol-3-yl]-N1-[(4-ethylmorpholin-2-yl)methyl]-5-methyl-benzene-1,3-diamine] | 1 to 10 | ≤ 1 |
| COCCN1CCC(Nc2cc(C)cc(Nc3ncn(-c4cc(F)cc(F)c4)n3)c2)C1 (stereo not drawn) [Compound 894, N3-[1-(3,5-difluorophenyl)-1,2,4-triazol-3-yl]-N1-[1-(2-methoxyethyl)pyrrolidin-3-yl]-5-methyl-benzene-1,3-diamine] | 10 to 100 | ≤ 1 |
| Cc1cc(NCC2CCCC2N2CCOCC2)cc(Nc2ncn(-c3cc(F)cc(F)c3)n2)c1 (stereo not drawn) [Compound 895, N1-[1-(3,5-difluorophenyl)-1,2,4-triazol-3-yl]-5-methyl-N3-[(2-morpholinocyclopentyl)methyl]benzene-1,3-diamine] | 10 to 100 | 1 to 10 |
| COCCCN1CCCN(c2cc(C)cc(Nc3ncn(-c4cc(F)cc(F)c4)n3)c2)CC1 [Compound 896, 1-(3,5-difluorophenyl)-N-[3-[4-(3-methoxypropyl)-1,4-diazepan-1-yl]-5-methyl-phenyl]-1,2,4-triazol-3-amine] | 1 to 10 | 1 to 10 |
| CCN1CCCC(Nc2cc(C)cc(Nc3ncn(-c4cc(F)cc(F)c4)n3)c2)C1 (stereo not drawn) [Compound 897, N3-[1-(3,5-difluorophenyl)-1,2,4-triazol-3-yl]-N1-(1-ethyl-3-piperidyl)-5-methyl-benzene-1,3-diamine] | 1 to 10 | ≤ 1 |
| [2H]C1(N2CCN(c3cc(C)cc(Nc4ncn(-c5ccccc5)n4)c3)CC2)COC1 [Compound 898, N-[3-[4-(3-deuteriooxetan-3-yl)piperazin-1-yl]-5-methyl-phenyl]-1-phenyl-1,2,4-triazol-3-amine] | 10 to 100 | ≤ 1 |
| Cc1cc(NCC(N2CCOCC2)C(F)(F)F)cc(Nc2ncn(-c3cc(F)cc(F)c3)n2)c1 (stereo not drawn) [Compound 899, N1-[1-(3,5-difluorophenyl)-1,2,4-triazol-3-yl]-5-methyl-N3-(3,3,3-trifluoro-2-morpholino-propyl)benzene-1,3-diamine] | 1 to 10 | 1 to 10 |
| CCOCC(O)CN1CCN(c2cc(C)cc(Nc3ncn(-c4cc(F)cc(F)c4)n3)c2)CC1 (stereo not drawn) [Compound 900, 1-[4-[3-[[1-(3,5-difluorophenyl)-1,2,4-triazol-3-yl]amino]-5-methyl-phenyl]piperazin-1-yl]-3-ethoxy-propan-2-ol] | 1 to 10 | ≤ 1 |
| Cc1cc(Nc2ncn(-c3cc(F)cc(F)c3)n2)cc(N2CCC3(CCO3)C2)c1 (stereo not drawn) [Compound 901, 1-(3,5-difluorophenyl)-N-[3-methyl-5-(1-oxa-7-azaspiro[3.4]octan-7-yl)phenyl]-1,2,4-triazol-3-amine] | 1 to 10 | ≤ 1 |
| Cc1cc(Nc2ncn(-c3cc(F)cc(F)c3)n2)cc(N2CCN(CCO)C(C)C2)c1 (stereo not drawn) [Compound 902, 2-[4-[3-[[1-(3,5-difluorophenyl)-1,2,4-triazol-3-yl]amino]-5-methyl-phenyl]-2-methyl-piperazin-1-yl]ethanol] | 1 to 10 | ≤ 1 |
